{"source": "patent US20250114313A1", "about": "“OLIGO-BENZAMIDE ANALOGS AND THEIR USE IN CANCER TREATMENT” (BOARD OF REGENTS, THE UNIVERSITY OF TEXAS SYSTEM, priority 2022, published 2025)", "key": {"[1]": {"test_system": "21 human preclinical TNBC cell line models", "test": "CellTiter-Glo cell viability, TNBC cell lines", "format": "cell-based", "conditions": "21 TNBC cell lines, read-out: anti-proliferative IC50, CellTiter-Glo", "method": "(§1) Cell viability assays: Cells were seeded in 96-well plates (2×10^3 cells/well) one day before the treatment. Cells were treated with varying concentrations of ERX-41 or ERX-11 analogs for 3-6 days. Then effects of ERX-41 or ERX-11 analogs on cell viability were measured in triplicate or sextuplicate with multiple biological replicates using the WST-1 (Promega), MTT as previously described^33 or CellTiter-Glo 2.0 (Promega) assays."}, "[2]": {"test_system": "HMEC cells", "test": "Live cell imaging with SYTOX Green, cell death in HMEC", "format": "cell-based", "method": "(§2) Live cell imaging: Live cell images were acquired by Lionheart FX automated microscope (BioTek). Cells were plated one day before the experiment. For cell death assay, 0.2 μM SYTOX Green was added into the plate 15 min before the experiment."}, "[3]": {"test_system": "SUM-159 cells", "test": "Airyscan / live cell confocal imaging of ER tubule width, SUM-159 mCherry-RAMP4", "format": "cell-based, Human", "method": "Live cell confocal and Airyscan imaging: To visualize ER structure, stable SUM-159 cell lines expressing mCherry-RAMP4 were established. pLenti-X1-hygro-mCherry-RAMP4 was purchased from Addgene (Addgene #118391; //n2t.net/addgene:118391; RRID:Addgene_118391) (via Jacob Corn).^35 The live cell images were acquired by Confocal Zeiss LSM880 Airyscan. ER tubule width was calculated by drawing 1px-wide line scans perpendicular to the long axis of individual ER tubules. In MATLAB, the peak intensity along each line scan was determined and the distance between the half maximum intensity on either side of the peak was measured. The code for this analysis is available at: //github.com/andmoo91/HalfMaxScript."}, "[4]": {"test_system": "SUM-159 cells", "test": "CellTiter-Glo, SUM-159 WT cells (mCherry-RAMP4)", "format": "cell-based", "conditions": "Homo sapiens, SUM159; SUM-159 stably transfected mCherry-RAMP4, CellTiter-Glo", "method": "as §1"}, "[5]": {"test_system": "SUM-159 clones with LIPA KO", "test": "Live cell imaging with SYTOX Green, SUM-159 LIPA KO", "format": "cell-based, Human", "conditions": "1 μM", "method": "as §2"}, "[6]": {"molecular_target": "T1, LAL lipase activity (Homo sapiens, UniProt P38571)", "T1 construct": "heat stability of LAL or vinculin protein in SUM-159 cells; endogenous in cells; host or cells: SUM-159", "T1 sequence (P38571 77-399)": "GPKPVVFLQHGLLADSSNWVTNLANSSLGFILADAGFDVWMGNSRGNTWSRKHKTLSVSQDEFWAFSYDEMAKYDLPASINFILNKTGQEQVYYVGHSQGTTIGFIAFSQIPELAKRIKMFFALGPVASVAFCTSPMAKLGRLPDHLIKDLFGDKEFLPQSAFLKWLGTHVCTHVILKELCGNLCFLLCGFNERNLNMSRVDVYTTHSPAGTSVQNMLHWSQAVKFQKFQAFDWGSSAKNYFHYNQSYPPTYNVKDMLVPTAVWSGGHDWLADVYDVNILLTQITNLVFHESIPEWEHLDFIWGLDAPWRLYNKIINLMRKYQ", "test": "Lipase activity assay (4-MUP), SUM-159 cell lysate", "format": "biochemical", "conditions": "SUM-159 cells; 30 μM", "method": "Lipase activity assay: Lipase activity assays were performed as described previously (Dairaku, et al)^37. Briefly, a 0.345 mM substrate solution was prepared from 1.2 mL of 13.3 mM 4-MUP and 42 mL of 100 mM sodium acetate buffer pH 4.0, 1.0% (v/v) Triton X-100 and 3.0 mL of 0.5% (w/v) cardiolipin. For the enzyme reaction, 50 μL of the substrate in buffer solution, 40 μL of diluted cell lysate and 10 μL of DMSO or 30 μM Lalistat2 or 30 μM ERX-41 were combined in a black 96-well plate. The plates were sealed with an adhesive aluminum film and incubated in a 37° C. incubator for 1 h. The reactions were terminated using 200 μL of 150 mM EDTA at pH 11.5. The fluorescence of the plates were read immediately with synergy H1 fluorescence microplate reader (BioTek) using a 365-nm excitation filter and a 450-nm emission filter. The LIPA lipase activity was calculated by subtracting the enzymatic activity of the inhibited (with Lalistat2) reaction from that of the uninhibited (without Lalistat2) reaction."}, "[7]": {"test_system": "TNBC", "test": "ER stress, cell death and lysosomes in TNBC (discussion, no method)", "format": "cell-based"}, "[8]": {"test_system": "SUM-159 cells with LIPA KO", "test": "UPR induction and protein synthesis in SUM-159 cells with LIPA KO (RNA-seq, RT-qPCR, western)", "format": "cell-based, Human", "conditions": "1 μM, 4 h", "method": "Western blotting: Whole cell lysates from breast cancer cells were prepared with 2× sample buffer (60 mM Tris-HCl, pH 6.8, 2% sodium dodecyl sulfate, 10% glycerol), and before loading mixed with loading buffer (5% 2-mercaptoethanol, 0.1% bromophenol blue) and boiled for denaturation, as previously described.^33 Proteins were separated by SDS-PAGE and subjected to Western analysis using antibodies. To detect nascent translated proteins, puromycin (final concentration 10 μg/mL) was added into cell plates 30 minutes before harvesting cells. Then samples were subjected to the Western blotting. Nascent proteins were detected by anti-puromycin antibody.\nReal-time quantitative PCR (RT-qPCR): Total RNA was prepared from breast cancer cells using the RNeasy Mini Kit (Qiagen) according to the manufacturer protocols. Subsequently, total RNAs were reverse transcribed into cDNA using iScript Reverse Transcription Supermix (Bio-rad) and by using SYBR Green on an Illumina Real-Time PCR system.\nRNA-sequencing: mRNA-seq sequencing library construction was performed using TruSeq RNA Library Preparation Kit (Illumina) according to the manufacturer's instructions. FASTQ reads from Genomics Core at UTSW were mapped to Human GRCh38 genome using HiSAT2 (RRID:SCR_015530). Differential expression analysis is performed using DEseq2 (RRID:SCR_015687). Abundances of transcripts are calculated using ballgown (Frazee et al. 2014). The values of Fragments Per Kilobase of transcript per Million mapped reads (FPKM) were used for Gene Set Enrichment Analysis (GSEA). GSEA was performed by using the GSEA software (RRID:SCR_005724) and C5 ontology gene sets (14765 gene sets in total). mRNA-seq data from this study are available from NCBI GEO under accession #GSE168800."}, "[9]": {"conditions": "parental SUM-159, 1 μM, from ~200 nm"}}, "data": [{"smiles": "CC(C)COc1cc(C(=O)Nc2ccc(C(=O)N[C@H]3CC[C@H](C)CC3)cc2OCC(C)C)ccc1NC(=O)c1ccc([N+](=O)[O-])c(OCCO)c1", "note": "[ERX-41]", "values": [{"measurement": "IC50", "setting": "[1]", "value": "< 250", "unit": "nM"}, {"measurement": "induction of cell death in HMEC", "setting": "[2]", "value": "did not significantly induce cell death"}, {"measurement": "ER tubule width, mean±S.D., airyscan", "setting": "[3]; 1 μM, 2 h, 0 h = 260±80 nm", "value": "660±320", "unit": "nm"}, {"measurement": "measured ER dilation following treatment", "setting": "[3]; discussion", "value": "~600", "unit": "nm"}, {"measurement": "ER tubule diameter, live cell confocal, 2 h", "setting": "[3]; [9]", "value": "~500", "unit": "nm"}, {"measurement": "ER tubule diameter, live cell confocal, 4 h", "setting": "[3]; [9]", "value": "~620", "unit": "nm"}, {"measurement": "IC50", "setting": "[4]", "value": "~200", "unit": "nM"}, {"measurement": "cell death in SUM-159 with LIPA KO", "setting": "[5]", "value": "dramatic decrease in cell death"}, {"measurement": "lipase activity of LIPA", "setting": "[6]", "value": "no inhibition of lipase activity"}, {"measurement": "changes in lysosomes", "setting": "[7]", "value": "no significant changes in lysosomes"}, {"measurement": "genes altered by RNA sequencing in LIPA KO cells", "setting": "[8]", "value": "no genes significantly altered"}]}]}
